From patent US20050233974A1, “Treating infectious diseases using ice inhibitors” (priority 2003, published 2005)

What was measured:
[1] = tested on: P. aeruginosa strain 19660; assay: corneal infection model, P. aeruginosa ATCC strain 19660; format: in vivo, B6 mice
Method: Eight week old female B6 mice (The Jackson Laboratory, Bar Harbor, Me.) were used in these experiments. The left cornea of each anesthetized mouse was scarified with three parallel 1 mm incisions using a sterile 25⅝ gauge needle under a stereoscopic microscope. […] Eyes were examined macroscopically at 1 day post-infection (p.i.) and at times described below to ensure that all mice were similarly infected and to monitor the course of disease. All animals were treated humanely and in full compliance with the Association for Research in Vision and Ophthalmology resolution on usage and treatment of animals in research.
Worth, Tex.) begun at 18 h p.i. and then 3×/day for 7 days. Initiation of ICE inhibitor therapy at 18 h p.i. was chosen to test experimentally in order to provide more clinically relevant data. In addition, by this time point, it would be expected that a patient would notice ocular symptoms such as haziness, discomfort and pain and would seek care.
Mice (n=5/group) were color coded and examined in masked fashion by two independent observers at 1, 3, 5 and 7 days p.i. to grade the severity of disease after P. aeruginosa infection.
The samples were subjected to three freeze-thaw cycles and then centrifuged at 14,000 rpm for 20 min. […] The change in absorbance at 460 nm was continuously monitored for 5 min. The results were expressed as units of MPO/cornea.
For this, individual corneas were homogenized in sterile PBS and aliquots (100 μl) of serial dilutions were plated onto Pseudomonas isolation agar (Difco, Detroit, Mich.) plates in triplicate. Plates were incubated for 24 h at 37° C. Results were expressed as log10 number of CFU/cornea±SEM.
Corneas (n=5/group) were removed at 7 days p.i. and immediately stored at −70° C. Before analysis, individual corneas were homogenized in 0.1% Tween 20-PBS with a glass Kontes pestle (Fisher, Itasca, Ill.) centrifuged at 5000×g for 10 minutes at 4° C., and supernatants were used to quantify IL-1β and MIP-2 proteins. Results are reported as pg/ml.
The change in clinical score with time within a group was tested by the Friedman two-way analysis of variance by ranks. The difference in clinical score at each experimental time point between the ICE inhibitor and placebo treated B6 mice was tested by the Mann-Whitney U test. An unpaired, two-tailed Student's t-test was used to determine statistical significance for data from MPO assay, bacterial counts and ELISA analyses between treated and control groups. Mean differences were considered significant at P≦0.05. Experiments were repeated at least twice to ensure reproducibility and representative data from a single experiment are shown.

[2] = tested on: Pseudomonas isolates resistant to ciprofloxacin; details: 22 ciprofloxacin-resistant isolates of 141 culture-proven cases; cited from earlier work

Compound: O=C(O)c1cn(C2CC2)c2cc(N3CCNCC3)c(F)cc2c1=O [ciprofloxacin]
- histopathological examination of eyes ([1]; 7 days p.i.): heavier inflammatory cells infiltrate in the anterior chamber and adherent to the corneal endothelium
- viable bacteria in cornea (plate counts) ([1]; 7 days p.i., ICE inhibitor vs. placebo (P=0.02)): No bacterial colonies were isolated
- protein levels of MIP-2 in cornea (ELISA) ([1]; 7 days p.i., ICE inhibitor vs. vehicle (P=0.012), with ciprofloxacin vs. vehicle and ciprofloxacin (P=0.04)): markedly reduced
- protein levels of IL-1β in cornea (ELISA) ([1]; 7 days p.i., ICE inhibitor vs. vehicle (P=0.023), with ciprofloxacin vs. vehicle and ciprofloxacin (P=0.036)): markedly reduced
- slit lamp microscopy of cornea ([1]; day 7 p.i.): heavier cellular infiltration in the cornea as well as in the anterior chamber
- mean MIC [2]: 43 mg/L
